Consider three compounds from patent US20240269091A1, “IDEBENONE IN THE TREATMENT OF DRUG RESISTANT EPILEPSY” (Katholieke Universiteit Leuven, priority 2021, published 2024).

“Also recorded” adds a separate entry of the source.

In series [1] the test system is EKP-induced seizures in zebrafish larvae. Briefly: Zebrafish EKP-induced seizure model, locomotor activity tracking. The class given is in vivo. Conditions: 8.5 μM, 2 h pre-incubation, 300 μM EKP, 7 dpf larvae, 30 min recording; ****p<0.0001. How it is done:
FIG. 2. Activity profile of 8.5 μM idebenone after 300 μM EKP exposure. Locomotor activity was quantified using ZebraLab™ software (Viewpoint, Lyon, France) and expressed in mean “actinteg” units per 5-min+/−SEM during a 30 min recording interval as indicated above. Statistical analysis: one-way ANOVA with Dunnett's multiple comparison test. A statistical difference is indicated by: ****p<0.0001. For each condition n=10 larvae were used and the experiment was performed three times (n total=30 per condition).
The EKP-induced epilepsy zebrafish model is a suitable model to investigate drug resistant epilepsy. Ethyl ketopentenoate (EKP) is a lipid-permeable GAD-inhibitor that results in […] and drug resistant seizures in zebrafish [Zhang et al. (2017) Sci Rep. 7, 7195]. […]
Larvae (7dpf) in 100 μl VHC were arrayed individually in a 96-well plate (tissue culture plate, at bottom, Falcon, USA) and kept in the light at 28° C. […] The plates were placed in an automated video tracking device (ZebraBox™ apparatus; Viewpoint, Lyon, France) and the locomotor behaviour of the larvae was monitored for […] in the dark at 28° C. Locomotor activity was quantified using ZebraLab™ software (Viewpoint, Lyon, France) and expressed in “actinteg” units per 5-min interval. […] The actinteg value is defined as the sum of all image pixel changes detected during the time window.

Series [2] concerns EKP-induced epileptiform activity in zebrafish. Briefly: Zebrafish EKP-induced seizure model, LFP recordings. Type of series: in vivo. The procedure: FIG. 3. Representative LFP recordings of zebrafish in the absence (VHC) or presence of EKP, treated with 8.5-4.3 μM idebenone or untreated (VHC), in the presence or absence of a specific PHGDH inhibitor CBR-5884 [Mullarky et al. (2016) Proc Natl Acad Sci USA 113, 1778-1783].
FIG. 4: Normalized PSD per larvae for the different conditions. Number of epileptic events within a 10-min recording (mean±SEM.). Number of recordings analysed were: VHC (n=9), EKP (n=15), 8.5 μM idebenone (Ide) (n=10), 4.3 μM idebenone (n=10), 4.3 μM idebenone+inhibitor (n=9). PHGDH-inhibitor CBR-5884 was used. Statistical differences as compared to the EKP-only treated larvae were assessed by the following statistical analysis: one-way ANOVA with Dunnett's multiple comparison test. A statistical difference is indicated by: **p<0.01, ***p<0.001 and ****p<0.0001.ns=not significant.
Common to all epilepsies, seizures occur due to an abnormal, excessive and synchronous activity of large neuronal populations. As such, seizures can be observed on electrophysiological recordings such as invasive or non-invasive local field potential (LFP) measurements, being a counterpart of electroencephalogram (EEG) performed in humans. Indeed, these techniques serve as a gold standard for epilepsy diagnosis. […]

For series [3], the system named is Arginase 1 expression (microglia/macrophage M2 marker). Briefly: Temporal lobe epilepsy model (SSSE), Arginase-1 expression by real-time quantitative PCR of brain tissue. Type of series: in vivo, C57bl/6 mice. The following applies: 100 mg/kg twice daily i.p. for one week, vs vehicle control; p=0.017; two-way ANOVA (FIG. 5). How it is done:
The present example investigates whether Idebenone has the potential to modulate neuroinflammation from an M1 to M2 phenotype. […] (control animals received vehicle injections for one week). Idebenone was suspended in 5% dimethyl sulfoxide and 20% Kolliphor RH40 in 0.01M PBS. Expression of the major marker for M2 polarization, Arginase-1, was assessed via real-time quantitative PCR upon brain tissue processing. Two-way ANOVA analysis was performed to evaluate the effect of two factors including the treatment and the SSSE [self-sustained Electrical Status Epilepticus], and any interaction of the two factors.

Series [4] has as its system pilocarpine-induced seizures. Conditions: rats, preventive treatment 3 days prior to pilocarpine injection; Ahmed (2014); cited from earlier work.
For series [5] the following is noted: mouse, in vivo; cited from earlier work.
Series [6] concerns the target T1, human recombinant PHGDH (Homo sapiens, UniProt O43175).
T1 sequence (O43175 1-533): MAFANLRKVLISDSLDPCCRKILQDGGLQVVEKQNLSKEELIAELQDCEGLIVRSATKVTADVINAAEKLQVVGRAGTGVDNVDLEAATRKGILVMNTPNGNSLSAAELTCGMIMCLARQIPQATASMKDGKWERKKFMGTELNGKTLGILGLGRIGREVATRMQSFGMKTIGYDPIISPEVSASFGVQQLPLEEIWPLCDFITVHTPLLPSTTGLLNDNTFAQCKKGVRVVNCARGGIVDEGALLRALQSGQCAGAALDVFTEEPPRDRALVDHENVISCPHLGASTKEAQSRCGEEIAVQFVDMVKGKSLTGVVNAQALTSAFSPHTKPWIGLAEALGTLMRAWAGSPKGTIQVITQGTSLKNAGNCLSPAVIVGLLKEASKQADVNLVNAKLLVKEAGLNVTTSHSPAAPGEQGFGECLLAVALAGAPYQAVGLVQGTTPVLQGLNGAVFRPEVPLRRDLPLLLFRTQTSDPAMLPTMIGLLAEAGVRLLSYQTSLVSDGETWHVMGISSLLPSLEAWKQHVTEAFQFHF
Briefly: PHGDH enzyme activity, colorimetric PHGDH activity kit (absorbance at 450 nm, NADH generated).
Procedure: As a readout, absorbance at 450 nm, indicative for the amount of NADH generated, was measured over time.

For series [7], the system named is EKP-induced epileptiform activity in zebrafish. Conditions: 1 μM; Zhang et al. (2017); cited from earlier work.

As for `COC1=C(OC)C(=O)C(CCCCCCCCCCO)=C(C)C1=O` [Idebenone, 6-(10-hydroxydecyl)-2,3-dimethoxy-5-methyl-1,4-benzoquinone], the “EKP-induced seizures assessed as locomotor movement (actinteg units per 5-min)” value in series [1] is on record as “significantly reduced EKP-induced seizures”. Besides, in series [2] (8.5-4.3 μM, 10-min recording), the “EKP-induced epileptiform activity, LFP recordings” value was “significantly reduced EKP-induced epileptiform activity”. Further, in series [3], the “expression of M2 marker Arginase 1” value is “increases the expression; also recorded: significant increase”. The “neuroprotection in pilocarpine-induced seizure model” value in series [4] was “provides neuroprotection”. Besides, the LD50 entry in series [5] is on record as “exceeds 10,000 mg/kg”. The “effect on the oxido-reduction reaction toward NADH generation (compound itself)” value in series [6] is given as “does not affect the oxido-reduction reaction toward NADH generation”. In series [6] (25 µM idebenone, over time, DMSO 0.5% (FIG. 1)), the PHGDH enzyme activity result is on record as “induces increased enzyme activity of PHGDH”.
Take `N#Cc1ccccc1-c1cc(-c2ccccn2)cn(-c2ccccc2)c1=O` [Perampanel]: the “anti-seizure activity in the EKP model” value in series [7] is “anti-seizure activity”.
Consider CBR-5884, for which the “blocking of the anti-seizure activity of idebenone” value in series [2] (co-administration with idebenone (4.3 μM)) is “could be blocked by co-administration”. In addition, in series [6] (co-administration with idebenone), the “blocking of idebenone-induced increased PHGDH activity” value is “can be blocked by co-administration”.
